We go through four compounds from patent US12636260B2, “Application of α-asarone in preparation of medicine for preventing or treating hemorrhagic stroke” (CHENGDU XINRUI TAIKANG TECHNOLOGY CO., LTD., priority 2021, dated 2026).

For data set [1], the system named is SAH rats. In words: Long-term survival rate of SAH rats. In kind it is in vivo, rat. To be noted: nimodipine injection 1 mg/kg intraperitoneally, 2 hours after modeling then once a day for 14 days. The procedure:
The experimental materials, grouping and modeling methods were the same as those in effect embodiment 1. The rats were immediately administrated 2 hours after SAH modeling according to the grouping administration protocol and continued to be administrated once a day for 14 days thereafter, and the survival of the rats was observed and recorded for 14 days. The mortality rate within 24 hours in group S was as high as 53.8%.

A further data set relates to ICH rats. In words: Short-term neurological function of ICH rats (Garcia score, beam balance test). To be noted: for Beam balance score / Garcia score: ICH model, 24 hours after modeling. In kind it is in vivo, rat. The procedure: (§1) Experimental grouping: At 2 h after endovascular perforation or collagenase VII injection, Zea Longa score was used to evaluate the neurological function of rats. Successful model rats were randomly divided into groups for administration.
(§2) All groups were administrated through the tail vein injection except for group N administrated intraperitoneally.
The rats were fasted for 12 hours before operation, and were anesthetized with 4% isoflurane, and kept anesthetized with 2% isoflurane. The animals were fixed in the prone position in a stereotaxic apparatus with the body temperature maintained at about 37° C. A traditional skin incision of the head was prepared along the midline. According to the stereotaxic atlas of the rat brain translated by Zhuge Qichao (George Paxinos, Charles Watson, Paxinos, Watson, & Zhuge Qichao. The Rat Brain in Stereotaxic Coordinates [M]. People's Medical Publishing House, 2005), the right caudate nucleus of the rat was determined as 0.0 mm anterior, 3.0 mm lateral to the bregma, and 5.5 mm ventral to the cortical surface. After labeling, we drilled an open window in the skull, and 1 μL of 0.5 U collagenase VII was slowly injected for 5 minutes with a microinjector. After the injection, the needle was stagnated for 8 minutes and slowly withdrawn. Then the scalp was sutured after the burr hole of skull was sealed with a sterile bone wax, and the rats were returned to the cage for normal feeding. The sham group conducted the same procedure as the model group, but received an equal volume of physiological saline into the caudate nucleus.
(§3) According to Zea Longa's neurological function score, the rats were scored 2 hours after the operation when they were awake from anesthesia. Successful model rats with a score of 1 to 3 points were enrolled in the group: • 0 points: no neurological deficits with normal activity; • 1 point: inability to fully extend the contralateral forepaw; • 2 points: the animal appears to turn in circles when crawling; • 3 points: the animal tends to lean to the hemiplegic side; • 4 points: the animal cannot walk spontaneously or loses consciousness. 1.4 Assessment of Short-Term Neurological Function
The neurological function of rats was comprehensively evaluated with Garcia score and beam balance test 24 hours after modeling. The criteria of Garcia score are shown in Table 1, which evaluates the movement, sensation, climbing and limb symmetry of the rats with the score range of 3 to 18 points. The lower the score, the more severe the neurological injury. The criteria of the beam balance test are shown in Table 2, which evaluated the proprioception and body coordination of rats with the score range of 0 to 6 points. The higher the score, the more severe the neurological injury. Scoring was done independently by a technician blinded to the modeling and drug administration.

The test system of data set [2] is SAH rats. In words: Secondary epilepsy in SAH rats (Racine score, seizures). In kind it is in vivo, rat. To be noted: within 24 hours after SAH, group N, nimodipine injection 1 mg/kg intraperitoneally. The procedure: The experimental materials, grouping, modeling method and administration protocol were the same as those in the effect embodiment 1, and the seizures of rats in each group were observed within 24 hours after SAH.

In data set [3] the test system is SAH rats. In words: Short-term neurological function of SAH rats (Garcia score, beam balance test, bleeding score). In kind it is in vivo, rat. To be noted: for Beam balance score / Garcia score: SAH model, 24 hours after modeling. The procedure:
as §1, §2
The rats were fasted for 12 hours before operation, and were anesthetized with 4% isoflurane, and kept anesthetized with 2% isoflurane. The animals were fixed in the supine position with the body temperature maintained at about 37° C. A traditional skin incision of the neck was performed along the midline. The muscle and fascia were separated along the medial margin of the sternocleidomastoid muscle to expose the right side, then the common carotid artery (CCA), external carotid artery (ECA) and internal carotid artery (ICA) were bluntly separated with disposal lines placed at CCA proximal end, ICA and ECA for use. The CCA proximal end and the ECA were ligated, and the ICA was temporarily clamped with an arterial clip, and then a small hole was poked with a needle at about 4 mm from the bifurcation at the CCA. A nylon suture was introduced into the CCA from the hole and advanced through the ICA after releasing the arterial clip, and the suture was inserted intracranially. […] The suture moved forward for roughly 2 mm to perforate the artery followed by instant withdraw, and then the suture was completely removed and the ICA was ligated. Finally, the incision was cleaned with normal saline and sutured. The sham group conducted the same procedure as the model group except for the perforation. After awakening from anesthesia, the animals were raised normally.
The SAH severity was grading after rat's euthanasia, i.e., completing the evaluation of short-term neurological function. The score was determined by the amount of subarachnoid hemorrhage on the surface of basal cistern and brain tissue which was divided into six parts by the Willis ring composed of basilar artery, anterior cerebral artery, internal carotid artery, posterior cerebral artery and posterior communicating artery. Each part was graded from 0 to 3 points according to the amount of subarachnoid blood clots, i.e., 0 points: no subarachnoid blood; 1 point: a small amount of subarachnoid blood; 2 points: moderate amount of blood clots with recognizable arteries; 3 points: blood clots cover all arteries in the area. All 6 part scores were added up for a total of 18 points. According to the final score, SAH hemorrhage severity could be divided into mild subarachnoid hemorrhage (0 to 7 points), moderate subarachnoid hemorrhage (8 to 12 points), and severe subarachnoid hemorrhage (13 to 18 points). The moderate to severe SAH models were selected for statistical analysis (score≥8 points).
as §3
The neurological function of rats was comprehensively evaluated with Garcia score and beam balance test 24 hours after modeling. The criteria of Garcia score are shown in Table 1, which evaluates the movement, sensation, climbing and limb symmetry of the rats with the score range of 3 to 18 points. The lower the score, the more severe the neurological injury. The criteria of the beam balance test are shown in Table 2, which evaluated the proprioception and body coordination of rats with the score range of 0 to 6 points. […]

A further data set relates to mouse bone marrow cells. In words: Mouse bone marrow micronucleus test by flow cytometry. In kind it is in vivo. As to conditions: mice. The procedure:
Experimental grouping and administration: The animals were randomly divided into five groups with 10 […] in each group: blank control group (blank group, administrated blank emulsion with the same volume as the high-dose group of α-asarone), cyclophosphamide group (CTX group, 40 mg/kg), low dose of α-asarone emulsion injection group (prepared by preparation embodiment 7, 100 mg/kg/day, ASA-L group), medium dose of α-asarone emulsion injection group (prepared by preparation embodiment 7, 150 mg/kg/day, ASA-M group), and high dose of α-asarone emulsion injection group (prepared from preparation embodiment 7, 200 mg/kg/day, ASA-H group).
All drugs were administrated through the tail vein for continuous 4 days except for the single injection of the positive control drug cyclophosphamide (CTX) 24 hours before sampling. After 24 hours of the last administration, the mice were sacrificed to separate both femurs. The femoral bone marrow cells were washed with PBS and filtered by 300 mesh nylon cell sieves to prepare a single-cell suspension. The suspension was centrifuged at 1650 rpm for 5 min, and the cell concentration was adjusted to 5×10^6 cells/mL by PBS resuspension. For each sample, 100 μL of the cell suspension was incubated with 400 μL of the PIPES-PI solution (10 mL of PIPES solution (concentration of 3.5 mg/mL)+0.5 mg PI+0.01 mL Triton X-100 (concentration of 0.1%)), gently blown and mixed, at 4° C. in the dark for 30 min and detected by a flow cytometry. […] The higher the value, the stronger the genotoxicity.

Where [4] appears, read: group N, nimodipine injection 1 mg/kg intraperitoneally.
[5] abbreviates: group B, β-asarone emulsion injection 20 mg/kg tail vein.
Setting [6] is: CTX group, 40 mg/kg, single injection 24 hours before sampling.
Where [7] appears, read: group V, vinpocetine injection 2 mg/kg tail vein.

Compound `COCCOC(=O)C1=C(C)NC(C)=C(C(=O)OC(C)C)C1c1cccc([N+](=O)[O-])c1` (centres unmarked) [nimodipine, reference compound] displayed a Survival rate with SAH rats [1] (Day 14, group N) of 58.3%. For the same compound, in the data set on SAH rats [1] (group N), the 24-hour mortality rate is listed as 25.0%. Moreover, in the data set on ICH rats (setting [4]), the Beam balance score is reported as 3.89 and the Garcia score was 8.92. Further, in the data set on SAH rats [2], the “Clonic seizures (%)” value was determined as 18.8%, the Racine score is listed as 0.81 ± 1.56 and the “Tonic seizures (%)” value was 6.2%. In the data set with SAH rats [3] (setting [4]), this compound displayed a Beam balance score of 3.01 and a Garcia score of 11.33.

As for `C/C=C\c1cc(OC)c(OC)cc1OC` [β-asarone, reference compound], the “effect against the neurological impairment” value is listed as “no obvious effect” in the data set with ICH rats (ICH model rats, group B, β-asarone emulsion injection 20 mg/kg) and “no obvious effect” in the data set on SAH rats [3] (SAH model rats, group B, β-asarone emulsion injection 20 mg/kg). Besides, the Beam balance score in the data set with ICH rats (setting [5]) is 3.76; with SAH rats [3] (setting [5]), 3.70. Besides, the values for the Garcia score in the data set on ICH rats (setting [5]) and with SAH rats [3] (setting [5]) were 9.12 and 10.51, respectively.

For the compound `O=P1(N(CCCl)CCCl)NCCCO1` (centres unmarked) [CTX, cyclophosphamide, reference compound], in the data set on mouse bone marrow cells (setting [6]), the MNPCE turned out to be 0.86 ± 0.25, the PCE is 36.46 ± 8.01 and the “fMNPCE (‰)” value is listed as 24.36 ± 8.03 ‰. Further, the “micronucleus rate compared to the blank emulsion group” value in the data set on mouse bone marrow cells (cyclophosphamide 40 mg/kg (P<0.01)) is recorded as “significantly higher”.

As for `CCOC(=O)C1=C[C@]2(CC)CCCN3CCc4c(n1c1ccccc41)[C@@H]32` [vinpocetine, reference compound], in the data set with ICH rats (setting [7]), the Beam balance score was determined as 3.27 and the Garcia score was 10.56. In the data set on SAH rats [3] (setting [7]), this compound returned a Beam balance score of 3.54 and a Garcia score of 10.30.
